From US20250108065A1 (AstraZeneca AB, priority 2022, published 2025)
Like-named read-outs stand apart in the source and are kept apart here.

Assays:
[1] = DAPA-HF (prediabetes); slope at 14-720 days
From the text: (§1) “eGFR slope” is the change in […] over time. “eGFR” stands for the estimated glomerular filtration rate.
(§2) (See Inker et al., GFR Slope as a Surrogate End Point for Kidney Disease Progression in Clinical Trials: A Meta-Analysis of Treatment Effects of Randomized Controlled Trials. J Am Soc Nephrol. 2019; 30 (9): 1735-45; Levey et al., GFR decline as an end point for clinical trials in CKD. Am J Kidney Dis. 2014; 64 (6): 821-35.)

[2] = From the text: as §1, §2
(§3) The patients without diabetes (or T2D) included those with prediabetes.

[3] = remark: listed apart in the source
Procedure: The DECLARE study enrolled a broad T2D patient population. By using parameters to select for a relatively healthy population that is close to the prediabetes population, the DECLARE population was split into 4 subgroups. The four subgroups in DECLARE are those with eGFR ≥60 ml/min/1.73 m^2, no history of HF at baseline and: • 1. HbA1c <7%, SBP <140 mmHg, and UACR ≤300 mg/g, or • 2. HbA1c <7%, SBP <140 mmHg, and UACR <30 mg/g, or • 3. T2D <5 years and UACR ≤300 mg/g, or • 4. T2D <5 years and UACR ≤30 mg/g.
as §2

[4] = DAPA-CKD
From the text: as §3

[5] = non-diabetic and prediabetic patients, DAPA-HF and DAPA-CKD, 10 mg once daily
From the text: DAPA-HF and DAPA-CKD included patients without diabetes, including those who qualify as prediabetic.

[6] = DAPA-HF
[7] = DAPA-CKD; remark: listed apart in the source
[8] = DAPA-HF; remark: listed apart in the source
[9] = DECLARE subgroup: HbA1c <7%, eGFR ≥60 ml/min/1.73 m^2, no history of HF, UACR ≤300 mg/g; Dapa 10 mg vs placebo
[10] = DAPA-HF, HbA1C < 6.5%, cited from earlier work
[11] = DAPA-CKD, HbA1C < 6.5%, cited from earlier work
[12] = Meta-analysis DAPA-HF/CKD, cited from earlier work
[13] = pre-diabetic 5.7% ≤ HbA1c < 6.5, Dapa vs placebo

CCOc1ccc(Cc2cc([C@@H]3O[C@H](CO)[C@@H](O)[C@H](O)[C@H]3O)ccc2Cl)cc1 [dapagliflozin]
eGFR chronic slope, Slope diff between Dapa 10 mg and Placebo [1]: 1.35 ml/min/1.73 m^2/yr
eGFR chronic slope, Slope diff between Dapa 10 mg and Placebo ([2]; DAPA-CKD (prediabetes), slope at 14 days-30 months): 1.44 ml/min/1.73 m^2/yr
placebo-corrected difference in eGFR slope ([2]; DAPA-CKD, T2D patients, from baseline to end of treatment): 1.18 ml/min/1.73 m^2/yr
placebo-corrected difference in eGFR slope ([2]; DAPA-CKD, T2D patients, from two weeks to end of treatment): 2.26 ml/min/1.73 m^2/yr
placebo-corrected difference in eGFR slope ([2]; DAPA-CKD, patients without T2D, from baseline to end of treatment): 0.46 ml/min/1.73 m^2/yr
placebo corrected difference in eGFR slope ([2]; DAPA-CKD, patients without T2D, from two weeks to end of treatment): 1.29 ml/min/1.73 m^2/yr
eGFR chronic slope, Slope diff between Dapa 10 mg and Placebo ([3]; DECLARE (Total Population), 6 months-2 yrs): 1.34 ml/min/1.73 m^2/yr
eGFR chronic slope, Slope diff between Dapa 10 mg and Placebo ([3]; DECLARE (Total Population), 6 months-3 yrs): 1.18 ml/min/1.73 m^2/yr
eGFR chronic slope, Slope diff between Dapa 10 mg and Placebo ([3]; DECLARE (Total Population), 6 months-4 yrs): 1.01 ml/min/1.73 m^2/yr
eGFR chronic slope, Slope diff between Dapa 10 mg and Placebo ([3]; DECLARE subgroup HbA1c <7%, SBP <140 mmHg, UACR <30 mg/g, eGFR ≥60, no HF, 6 months-2 yrs): 1.25 ml/min/1.73 m^2/yr
eGFR chronic slope, Slope diff between Dapa 10 mg and Placebo ([3]; DECLARE subgroup HbA1c <7%, SBP <140 mmHg, UACR <30 mg/g, eGFR ≥60, no HF, 6 months-3 yrs): 1.17 ml/min/1.73 m^2/yr
eGFR chronic slope, Slope diff between Dapa 10 mg and Placebo ([3]; DECLARE subgroup HbA1c <7%, SBP <140 mmHg, UACR <30 mg/g, eGFR ≥60, no HF, 6 months-3 yrs, listed as Dapa): 1.71 ml/min/1.73 m^2/yr
eGFR chronic slope, Slope diff between Dapa 10 mg and Placebo ([3]; DECLARE subgroup HbA1c <7%, SBP <140 mmHg, UACR <30 mg/g, eGFR ≥60, no HF, 6 months-4 yrs): 0.98 ml/min/1.73 m^2/yr
eGFR chronic slope, Slope diff between Dapa 10 mg and Placebo ([3]; DECLARE subgroup HbA1c <7%, SBP <140 mmHg, UACR ≤300 mg/g, eGFR ≥60, no HF, 6 months-2 yrs): 1.56 ml/min/1.73 m^2/yr
eGFR chronic slope, Slope diff between Dapa 10 mg and Placebo ([3]; DECLARE subgroup HbA1c <7%, SBP <140 mmHg, UACR ≤300 mg/g, eGFR ≥60, no HF, 6 months-3 yrs): 1.85 ml/min/1.73 m^2/yr
eGFR chronic slope, Slope diff between Dapa 10 mg and Placebo ([3]; DECLARE subgroup HbA1c <7%, SBP <140 mmHg, UACR ≤300 mg/g, eGFR ≥60, no HF, 6 months-4 yrs): 1.08 ml/min/1.73 m^2/yr
eGFR chronic slope, Slope diff between Dapa 10 mg and Placebo ([3]; DECLARE subgroup diabetes duration <5 years, UACR ≤30 mg/g, eGFR ≥60, no HF, 6 months-2 yrs): 1.03 ml/min/1.73 m^2/yr
eGFR chronic slope, Slope diff between Dapa 10 mg and Placebo ([3]; DECLARE subgroup diabetes duration <5 years, UACR ≤30 mg/g, eGFR ≥60, no HF, 6 months-3 yrs): 0.96 ml/min/1.73 m^2/yr
eGFR chronic slope, Slope diff between Dapa 10 mg and Placebo ([3]; DECLARE subgroup diabetes duration <5 years, UACR ≤30 mg/g, eGFR ≥60, no HF, 6 months-4 yrs): 0.86 ml/min/1.73 m^2/yr
eGFR chronic slope, Slope diff between Dapa 10 mg and Placebo ([3]; DECLARE subgroup diabetes duration <5 years, UACR ≤300 mg/g, eGFR ≥60, no HF, 6 months-2 yrs): 0.88 ml/min/1.73 m^2/yr
eGFR chronic slope, Slope diff between Dapa 10 mg and Placebo ([3]; DECLARE subgroup diabetes duration <5 years, UACR ≤300 mg/g, eGFR ≥60, no HF, 6 months-3 yrs): 0.92 ml/min/1.73 m^2/yr
eGFR chronic slope, Slope diff between Dapa 10 mg and Placebo ([3]; DECLARE subgroup diabetes duration <5 years, UACR ≤300 mg/g, eGFR ≥60, no HF, 6 months-4 yrs): 0.86 ml/min/1.73 m^2/yr
renal benefits following dapagliflozin treatment ([3]; DECLARE, T2D patients with eGFR 60 to 90 and ≥90 ml/min/1.73 m^2): reduced eGFR decline and albuminuria
HR, primary composite outcome of worsening of kidney function or death ([4]; patients with diabetes): 0.64
HR, primary composite outcome of worsening of kidney function or death ([4]; patients without diabetes): 0.50
Events of definite or probable diabetic ketoacidosis (DKA) [5]: not observed
major hypoglycemic AEs [5]: not observed
safety profile [5]: consistent with the profile established in patients with T2D
Event rate of new onset T2D ([6]; pre-diabetic 5.7% ≤ HbA1C < 6.5, 1748 participants): Dapa: 5.3 per 100 patient-years of follow-up
HR (95% CI) new onset T2D ([6]; pre-diabetic 5.7% ≤ HbA1C < 6.5, Dapa vs placebo): 0.72 (0.52, 0.99)
Event rate of new onset T2D ([7]; pre-diabetic 5.7% ≤ HbA1c < 6.5, 660 participants): Dapa: 2.7 per 100 patient-years of follow-up
HR (95% CI) new onset T2D [7, 13]: 0.59 (0.33, 1.04)
HR, primary composite outcome (CV death, hospitalization for HF, or urgent HF visit) ([8]; patients with diabetes): 0.75
HR, primary composite outcome (CV death, hospitalization for HF, or urgent HF visit) ([8]; patients without diabetes): 0.73
risk of worsening blood pressure (time to worsening in blood pressure category) [9]: lowered the risk of worsening blood pressure compared with placebo
Event rate of new onset T2D ([10]; 2605 participants): Dapa: 5.0 per 100 patient-years of follow-up
HR (95% CI) new onset T2D ([10]; Dapa vs placebo): 0.68 (0.50, 0.94)
Event rate of new onset T2D ([11]; 1398 participants): Dapa: 1.4 per 100 patient-years of follow-up
HR (95% CI) new onset T2D ([11]; Dapa vs placebo): 0.62 (0.36, 1.07)
Event rate of new onset T2D ([12]; HbA1c < 6.5%, 4003 participants): Dapa: 2.6 per 100 patient-years of follow-up
HR (95% CI) new onset T2D ([12]; HbA1c < 6.5%, Dapa vs placebo): 0.67 (0.51, 0.88)
Event rate of new onset T2D ([12]; pre-diabetic 5.7% ≤ HbA1c < 6.5, 2408 participants): Dapa: 4.2 per 100 patient-years of follow-up
HR (95% CI) new onset T2D [12, 13]: 0.69 (0.52, 0.91)
